Results published in US20240228482A1, “COMPOUNDS, COMPOSITIONS AND METHODS OF TREATING CANCER” (HOTSPOT THERAPEUTICS, INC., priority 2021, published 2024).
Like-named read-outs stand apart in the source and are kept apart here.

Target: T1, CBL-B (Homo sapiens, UniProt Q13191)
T1 construct: GST
Assay: CBL-B TR-FRET IC50 screening (E1/E2 ubiquitination, Biotin-Ubiquitin, Anti GST-Tb donor / Streptavidin-d2 acceptor)
Type: biochemical

[1] = CBL-B 10 nM final, 11-point titration from 100 uM, binned A-F, read-out: CBL-B TR-FRET activity IC50
[2] = second part of Table 2 (head 'Patent Cmpd No / Updated Activity'), same CBL-B TR-FRET IC50 bins A-F, read-out: Updated Activity

T1 sequence (Q13191 whole entry): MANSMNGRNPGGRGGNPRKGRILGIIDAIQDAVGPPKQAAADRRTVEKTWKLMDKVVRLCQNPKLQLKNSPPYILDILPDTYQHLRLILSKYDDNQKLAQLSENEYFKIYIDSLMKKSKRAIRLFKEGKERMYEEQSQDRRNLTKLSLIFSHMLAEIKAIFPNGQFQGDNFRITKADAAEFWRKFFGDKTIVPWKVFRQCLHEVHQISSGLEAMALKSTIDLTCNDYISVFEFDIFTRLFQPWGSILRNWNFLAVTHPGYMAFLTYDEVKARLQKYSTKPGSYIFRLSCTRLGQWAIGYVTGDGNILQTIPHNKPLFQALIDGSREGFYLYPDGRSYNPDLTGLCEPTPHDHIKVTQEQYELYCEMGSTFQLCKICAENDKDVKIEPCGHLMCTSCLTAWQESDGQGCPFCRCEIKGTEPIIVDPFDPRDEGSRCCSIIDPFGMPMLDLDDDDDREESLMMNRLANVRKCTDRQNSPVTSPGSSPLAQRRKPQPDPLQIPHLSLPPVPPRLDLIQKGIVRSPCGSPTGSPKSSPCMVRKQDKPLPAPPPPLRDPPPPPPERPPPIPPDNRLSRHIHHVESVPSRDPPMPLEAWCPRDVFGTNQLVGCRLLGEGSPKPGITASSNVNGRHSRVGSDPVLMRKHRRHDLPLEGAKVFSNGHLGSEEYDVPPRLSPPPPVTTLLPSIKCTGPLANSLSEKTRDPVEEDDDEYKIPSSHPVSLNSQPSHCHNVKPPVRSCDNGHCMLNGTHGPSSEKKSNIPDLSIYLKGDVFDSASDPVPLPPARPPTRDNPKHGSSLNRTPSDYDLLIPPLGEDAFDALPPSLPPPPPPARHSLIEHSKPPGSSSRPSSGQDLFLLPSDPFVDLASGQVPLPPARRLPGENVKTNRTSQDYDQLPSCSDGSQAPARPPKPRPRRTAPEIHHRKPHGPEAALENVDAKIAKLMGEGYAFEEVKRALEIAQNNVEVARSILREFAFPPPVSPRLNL

Row | SMILES | IC50 [1] | IC50 [2] | further results
1 | C[C@H]1CCCN(Cc2cc(C(F)(F)F)c3cn(-c4cccc([C@@H](CC5CCC5)c5nncn5C)c4)c(=O)n3c2)C1 [Compound 352_P2] | 100 to 300 nM | – | –
2 | Cn1cnnc1[C@@H](c1cccc(-n2cc3c(C(F)(F)F)cc(CN4Cc5ncsc5C4)cn3c2=O)c1)C1CCC1 [Compound 357] | < 100 nM | – | –
3 | C[C@H]1CCCCN1Cc1cc(C(F)(F)F)c2cn(-c3cccc([C@@H](c4nncn4C)C4CCC4)c3)c(=O)n2c1 [Compound 362_P1] | < 100 nM | – | –
4 | C[C@H]1CCCCN1Cc1cc(C(F)(F)F)c2cn(-c3cccc([C@H](c4nncn4C)C4CCC4)c3)c(=O)n2c1 [Compound 362_P2] | 100 to 300 nM | – | –
5 | C[C@@H]1CCCCN1Cc1cc(C(F)(F)F)c2cn(-c3cccc([C@@H](c4nncn4C)C4CCC4)c3)c(=O)n2c1 [Compound 363_P1] | > 10000 nM | – | –
6 | C[C@@H]1CCCCN1Cc1cc(C(F)(F)F)c2cn(-c3cccc([C@H](c4nncn4C)C4CCC4)c3)c(=O)n2c1 [Compound 363_P2] | < 100 nM | – | –
7 | CN1CCN(Cc2cc(C(F)(F)F)c3cn(-c4cccc([C@@H](c5nncn5C)C5CCC5)c4)c(=O)n3c2)CC1=O [Compound 364_P1] | 301 to 1000 nM | – | –
8 | CN1CCN(Cc2cc(C(F)(F)F)c3cn(-c4cccc([C@H](c5nncn5C)C5CCC5)c4)c(=O)n3c2)CC1=O [Compound 364_P2] | < 100 nM | – | –
9 | CN1CC2CCC(C1)N2c1cc(C(F)(F)F)c2cn(-c3cccc([C@H](c4nncn4C)C4CCC4)c3)c(=O)n2c1 [Compound 373] | 100 to 300 nM | – | –
10 | CN1C2CCC1CN(c1cc(C(F)(F)F)c3cn(-c4cccc([C@H](c5nncn5C)C5CCC5)c4)c(=O)n3c1)C2 [Compound 374] | 301 to 1000 nM | – | –
11 | COCCN(c1cccc(-n2cc3c(C(F)(F)F)cc(CN4CCC[C@H](C)C4)cn3c2=O)c1)c1nncn1C [Compound 375] | 100 to 300 nM | – | –
12 | CC1CCN(Cc2cc(C(F)(F)F)c3cn(-c4cccc([C@H](c5nncn5C)C5CCC5)c4)c(=O)n3c2)CC1 [Compound 376] | < 100 nM | – | –
13 | CN(C)C(=O)C1CCN(Cc2cc(C(F)(F)F)c3cn(-c4cccc([C@H](c5nncn5C)C5CCC5)c4)c(=O)n3c2)CC1 [Compound 377] | < 100 nM | – | –
14 | Cn1cnnc1[C@@H](c1cccc(-n2cc3c(C(F)(F)F)cc(CN4CCS(=O)(=O)CC4)cn3c2=O)c1)C1CCC1 [Compound 378] | < 100 nM | – | –
15 | C[C@H]1CCCN(C(=O)c2cc(C(F)(F)F)c3cn(-c4cccc([C@H](c5nncn5C)C5CCC5)c4)c(=O)n3c2)C1 [Compound 379] | < 100 nM | – | –
16 | C[C@H]1CCCN1Cc1cc(C(F)(F)F)c2cn(-c3cccc([C@@H](c4nncn4C)C4CCC4)c3)c(=O)n2c1 [Compound 380_P1] | 1000 to 3000 nM | – | –
17 | C[C@H]1CCCN1Cc1cc(C(F)(F)F)c2cn(-c3cccc([C@H](c4nncn4C)C4CCC4)c3)c(=O)n2c1 [Compound 380_P2] | < 100 nM | – | –
18 | C[C@@H]1CCCN1Cc1cc(C(F)(F)F)c2cn(-c3cccc([C@@H](c4nncn4C)C4CCC4)c3)c(=O)n2c1 [Compound 381_P1] | 1000 to 3000 nM | – | –
19 | C[C@@H]1CCCN1Cc1cc(C(F)(F)F)c2cn(-c3cccc([C@H](c4nncn4C)C4CCC4)c3)c(=O)n2c1 [Compound 381_P2] | < 100 nM | – | –
20 | COC[C@@H]1CCCN1Cc1cc(C(F)(F)F)c2cn(-c3cccc([C@@H](c4nncn4C)C4CCC4)c3)c(=O)n2c1 [Compound 382_P1] | < 100 nM | – | –
21 | COC[C@@H]1CCCN1Cc1cc(C(F)(F)F)c2cn(-c3cccc([C@H](c4nncn4C)C4CCC4)c3)c(=O)n2c1 [Compound 382_P2] | 1000 to 3000 nM | – | –

Row | SMILES | IC50 [1] | IC50 [2] | further results
22 | COC(=O)N1CCC(c2cc(C(F)(F)F)c3cn(-c4cccc([C@H](c5nncn5C)C5CCC5)c4)c(=O)n3c2)CC1 [Compound 395] | – | 100 to 300 nM | –
23 | CC(=O)N1CCC(c2cc(C(F)(F)F)c3cn(-c4cccc([C@H](c5nncn5C)C5CCC5)c4)c(=O)n3c2)CC1 [Compound 398] | – | < 100 nM | –
24 | Cn1cnnc1[C@H](c1cccc(-n2cc3c(C(F)(F)F)cccn3c2=O)c1)C1CCC1 [Compound 401_P1] | – | < 100 nM | –
25 | Cn1cnnc1[C@@H](c1cccc(-n2cc3c(C(F)(F)F)cccn3c2=O)c1)C1CCC1 [Compound 401_P2] | – | > 10000 nM | –
26 | C[C@@H]1CN(Cc2cc(C(F)(F)F)c3cn(-c4cccc([C@H](CC5CCC5)c5nncn5C)c4)c(=O)n3c2)CCO1 [Compound 402] | – | > 10000 nM | –
27 | C[C@H]1CCCN(Cc2cc(C(F)(F)F)c3cn(-c4cccc([C@H](c5nncn5C)C5CNC5)c4)c(=O)n3c2)C1 [Compound 403] | – | > 10000 nM | –
28 | Cn1cnnc1[C@@H](c1cc(-n2cc3c(C(F)(F)F)cccn3c2=O)cs1)C1CCC1 [Compound 403_P1] | – | > 10000 nM | –
29 | Cn1cnnc1[C@H](c1cc(-n2cc3c(C(F)(F)F)cccn3c2=O)cs1)C1CCC1 [Compound 403_P2] | – | 301 to 1000 nM | –
30 | Cn1cnnc1[C@@H](c1cccc(-n2cc3c(C(F)(F)F)cc(CN4CCC5(CC5)C4)cn3c2=O)c1)C1COC1 [Compound 412] | – | < 100 nM | –
31 | Cn1cnnc1[C@@H](c1cccc(-n2cc3c(C(F)(F)F)cc(CN4CCC(C)(F)CC4)cn3c2=O)c1)C1COC1 [Compound 413] | – | < 100 nM | –
32 | Cn1cnnc1[C@@H](c1cccc(-n2cc3c(C(F)(F)F)cc(CN4CCC(F)CC4)cn3c2=O)c1)C1COC1 [Compound 414] | – | < 100 nM | –
33 | COC1CCN(Cc2cc(C(F)(F)F)c3cn(-c4cccc([C@H](c5nncn5C)C5COC5)c4)c(=O)n3c2)CC1 [Compound 415] | – | < 100 nM | –
34 | C[C@@H]1CCCN(Cc2cc(C(F)(F)F)c3cn(-c4cccc(C5(Cc6nncn6C)COC5)c4)c(=O)n3c2)C1 [Compound 416] | – | < 100 nM | –
35 | Cn1cnnc1[C@@H](c1cccc(-n2cc3c(C(F)(F)F)cc(C(=O)N4CCC5(CC5)C4)cn3c2=O)c1)C1CCC1 [Compound 429] | – | 100 to 300 nM | –
36 | Cn1cnnc1[C@@H](c1cccc(-n2cc3c(C(F)(F)F)cc(C(=O)N4CCC(C)(F)CC4)cn3c2=O)c1)C1CCC1 [Compound 430] | – | 301 to 1000 nM | –
37 | C[C@H]1CCCN(Cc2cc(C(F)(F)F)c3cn(-c4cccc(Cc5cccnn5)c4)c(=O)n3c2)C1 [Compound 431] | – | > 10000 nM | –
38 | C[C@@H]1CN(Cc2cc(C(F)(F)F)c3cn(-c4cccc(C5(c6nncn6C)CCC5)c4)c(=O)n3c2)CCO1 [Compound 432] | – | > 10000 nM | –
39 | C[C@H]1CCCN(Cc2cc(C(F)(F)F)c3cn(-c4cccc(C5(c6nncn6C)CC(C)(C)C5)c4)c(=O)n3c2)C1 [Compound 433] | – | – | IC50 (Updated Activity, second part of Table 2 (head 'Patent Cmpd No / Updated Activity'), same CBL-B TR-FRET IC50 bins A-F): < 100 nM
40 | CC(=O)N1CC([C@@H](c2cccc(-n3cc4c(C(F)(F)F)cc(CN5CCC[C@H](C)C5)cn4c3=O)c2)c2nncn2C)C1 [Compound 434_P1] | – | > 10000 nM | –
41 | CC(=O)N1CC([C@H](c2cccc(-n3cc4c(C(F)(F)F)cc(CN5CCC[C@H](C)C5)cn4c3=O)c2)c2nncn2C)C1 [Compound 434_P2] | – | 1000 to 3000 nM | –
42 | C[C@@H]1C[C@H](C)CN(Cc2cc(C(F)(F)F)c3cn(-c4cccc([C@H](c5nncn5C)C5CCC5)c4)c(=O)n3c2)C1 [Compound 449] | – | < 100 nM | –

Row | SMILES | IC50 [1] | IC50 [2] | further results
43 | Cn1cnnc1C1(c2cccc(-n3cc4c(C(F)(F)F)cc(CN5CCC6(CC6)C5)cn4c3=O)c2)CCC1 [Compound 450] | – | < 100 nM | –
44 | Cn1cnnc1C1(c2cccc(-n3cc4c(C(F)(F)F)cc(CN5CC6(CC6)C5)cn4c3=O)c2)CCC1 [Compound 451] | – | < 100 nM | –
45 | C[C@H]1CCCN(Cc2cc(C(F)(F)F)c3cn(-c4cccc(C(=C5CCC5)c5nncn5C)c4)c(=O)n3c2)C1 [Compound 466] | – | < 100 nM | –
46 | Cn1cnnc1[C@@H](c1cccc(-n2cc3c(C(F)(F)F)cc(CN4CCCOC4=O)cn3c2=O)c1)C1CCC1 [Compound 467] | – | < 100 nM | –
47 | Cn1cnnc1[C@@H](c1cccc(-n2cc3c(C(F)(F)F)cc(CN4CCOC4=O)cn3c2=O)c1)C1CCC1 [Compound 468] | – | < 100 nM | –
48 | COC(=O)N(C)Cc1cc(C(F)(F)F)c2cn(-c3cccc([C@H](c4nncn4C)C4CCC4)c3)c(=O)n2c1 [Compound 469] | – | < 100 nM | –
49 | C[C@H]1CCCN(Cc2cc(C(F)(F)F)c3cn(-c4cccc([C@H](c5nncn5C)C5CN(C)C5)c4)c(=O)n3c2)C1 [Compound 470_P1] | – | > 10000 nM | –
50 | C[C@H]1CCCN(Cc2cc(C(F)(F)F)c3cn(-c4cccc([C@@H](c5nncn5C)C5CN(C)C5)c4)c(=O)n3c2)C1 [Compound 470_P2] | – | > 10000 nM | –
51 | Cn1cnnc1C1(c2cccc(-n3cc4c(C(F)(F)F)cc(CN5CCC(C)(F)CC5)cn4c3=O)c2)CCC1 [Compound 471] | – | < 100 nM | –
52 | C[C@H]1CCCN(Cc2cc(C(F)(F)F)c3cn(-c4cccc([C@@H](c5nncn5C)C5CC5)c4)c(=O)n3c2)C1 [Compound 472_P1] | – | 100 to 300 nM | –
53 | C[C@H]1CCCN(Cc2cc(C(F)(F)F)c3cn(-c4cccc([C@H](c5nncn5C)C5CC5)c4)c(=O)n3c2)C1 [Compound 472_P2] | – | < 100 nM | –
54 | Cn1cnnc1C1(c2cccc(-n3cc4c(C(F)(F)F)cc(CN5CCc6ncsc6C5)cn4c3=O)c2)CCC1 [Compound 473] | – | < 100 nM | –
55 | CN1CCCN(Cc2cc(C(F)(F)F)c3cn(-c4cccc([C@H](c5nncn5C)C5CCC5)c4)c(=O)n3c2)C1=O [Compound 482] | – | < 100 nM | –
56 | CN1CCN(Cc2cc(C(F)(F)F)c3cn(-c4cccc([C@H](c5nncn5C)C5CCC5)c4)c(=O)n3c2)C1=O [Compound 483] | – | < 100 nM | –
57 | CN(C)C(=O)N(C)Cc1cc(C(F)(F)F)c2cn(-c3cccc([C@H](c4nncn4C)C4CCC4)c3)c(=O)n2c1 [Compound 484] | – | < 100 nM | –
58 | [2H]C([2H])(c1cc(C(F)(F)F)c2cn(-c3cccc([C@H](c4nncn4C)C4CCC4)c3)c(=O)n2c1)N1CCC[C@H](C)C1 [Compound 487] | – | < 100 nM | –
59 | C[C@H]1COCCN1Cc1cc(C(F)(F)F)c2cn(-c3cccc([C@H](c4nncn4C)C4CCC4)c3)c(=O)n2c1 [Compound 488] | – | < 100 nM | –
60 | C[C@@H]1COCCN1Cc1cc(C(F)(F)F)c2cn(-c3cccc([C@H](c4nncn4C)C4CCC4)c3)c(=O)n2c1 [Compound 489] | – | < 100 nM | –
61 | [2H]C([2H])(c1cc(C(F)(F)F)c2cn(-c3cccc(C4(Cc5nncn5C)COC4)c3)c(=O)n2c1)N1CCC[C@H](C)C1 [Compound 490] | – | < 100 nM | –
62 | C[C@@H]1CCCN(Cc2cc(C(F)(F)F)c3cn(-c4cccc([C@H](c5nncn5C)C5CCC5)c4)c(=O)n3c2)C1 [Compound 491] | – | < 100 nM | –
